According to ChEMBL document CHEMBL3421576, “N-((1,3-Diphenyl-1H-pyrazol-4-yl)methyl)anilines: A novel class of anti-RSV agents” (Bioorg Med Chem Lett, 2015):
pEC50: −log10 of the molar value.

Legend:
[1] = Cytotoxicity against bovine MDBK cells assessed as cell viability after 72 hrs by MTT method; type: cell-based, Bos taurus; settings: cattle
[2] = tested on: Bovine viral diarrhea virus 1; assay: Antiviral activity against BVDV infected in bovine MDBK cells assessed as protection against viral-induced cytopathogenecity after 3 to 4 days by MTT method; type: functional, organism-based; settings: Bovine viral diarrhea virus isolates and strains, MDBK
[3] = Selectivity index, ratio of CC50 for bovine MDBK cells to EC50 for BVDV infected in bovine MDBK cells
[4] = Cytotoxicity against hamster BHK21 cells assessed as cell viability after 72 hrs by MTT method; type: cell-based, Mesocricetus auratus, BHK-21
Yellow fever virus = assay: Antiviral activity against YFV infected in hamster BHK21 cells assessed as protection against viral-induced cytopathogenecity after 3 to 4 days by MTT method; type: functional, organism-based, BHK-21; settings: Yellow fever virus, BHK-21
[5] = Cytotoxicity against African green monkey Vero 76 cells assessed as cell viability after 48 to 96 hrs by MTT method; type: cell-based; settings: chlorocebus sabaeus, Vero 76 cells
[6] = tested on: Respiratory syncytial virus; assay: Antiviral activity against RSV infected in African green monkey Vero 76 cells after 5 days by plaque reduction assay; type: functional, organism-based; settings: human respiratory syncytial virus, Vero, 120 h
[7] = Selectivity index, ratio of CC50 for African green monkey Vero 76 cells to EC50 for RSV infected in African green monkey Vero 76 cells
[8] = Cytotoxicity against human MT4 cells assessed as cell viability after 96 hrs by MTT method; type: cell-based
[9] = tested on: Human immunodeficiency virus 1; assay: Antiviral activity against HIV1 infected in human MT4 cells assessed as protection against viral-induced cytopathogenecity after 4 days by MTT method; type: functional, organism-based; settings: Human immunodeficiency virus 1, MT4, 96 h
[10] = tested on: Mammalian orthoreovirus 1; assay: Antiviral activity against Reovirus 1 infected in hamster BHK21 cells assessed as protection against viral-induced cytopathogenecity after 3 to 4 days by MTT method; type: functional, cell-based; settings: Mammalian orthoreovirus 1, BHK-21
Coxsackievirus B5 = assay: Antiviral activity against Coxsackievirus B5 infected in African green monkey Vero 76 cells after 3 days by plaque reduction assay; type: functional, organism-based; settings: Enterovirus B, Vero, 72 h
Enterovirus C = assay: Antiviral activity against Poliovirus Sb-1 infected in African green monkey Vero 76 cells after 2 days by plaque reduction assay; type: functional, organism-based; settings: Enterovirus C, Sb-1, Vero, 48 h
Vaccinia virus = assay: Antiviral activity against Vaccinia virus infected in African green monkey Vero 76 cells after 3 days by plaque reduction assay; type: functional, organism-based, Orthopoxvirus vaccinia; settings: Orthopoxvirus vaccinia, Vero, 72 h
Human alphaherpesvirus 1 = assay: Antiviral activity against HSV1 infected in African green monkey Vero 76 cells after 3 days by plaque reduction assay; type: functional, organism-based; settings: Human alphaherpesvirus 1, Vero, 72 h
[11] = tested on: Vesicular stomatitis virus; assay: Antiviral activity against VSV infected in African green monkey Vero 76 cells after 2 days by plaque reduction assay; type: functional, organism-based; settings: Vesicular stomatitis virus, Vero, 48 h
[12] = Selectivity index, ratio of CC50 for hamster BHK21 cells to EC50 for YFV infected in hamster BHK21 cells; design: species or system BHK-21

Row | SMILES | CC50 at 72 h [1] | pEC50 [2] | Ratio CC50/EC50 [3] | CC50 at 72 h [4] | pEC50 (Yellow fever virus) | CC50 [5] | pEC50 [6] | Ratio CC50/EC50 [7] | CC50 at 96 h [8] | pEC50 [9] | pEC50 [10] | pEC50 (Coxsackievirus B5) | pEC50 (Enterovirus C) | pEC50 (Vaccinia virus) | pEC50 (Human alphaherpesvirus 1) | pEC50 [11] | Ratio CC50/EC50 [12]
1 | Clc1ccc(NCc2cn(-c3ccccc3)nc2-c2ccc(Cl)cc2)cc1 | > 100 µM | 4.51 | >3.2 | 73 µM | < 4.14 | 90 µM | 4.89 | 6.9 | > 100 µM | < 4.00 | < 4.14 | < 4.05 | < 4.05 | < 4.05 | < 4.05 | < 4.05 | –
2 | Brc1ccc(NCc2cn(-c3ccccc3)nc2-c2ccccc2)cc1 | > 100 µM | 4.51 | >3.2 | > 100 µM | 4.49 | 52 µM | 5.05 | 5.8 | > 100 µM | < 4.00 | < 4.00 | < 4.28 | < 4.28 | < 4.28 | < 4.28 | < 4.28 | >3.1
3 | Clc1ccc(NCc2cn(-c3ccccc3)nc2-c2ccccc2)cc1 | > 100 µM | 4.54 | >3.4 | > 100 µM | 4.54 | 65 µM | 5.22 | 10.8 | > 100 µM | < 4.00 | < 4.00 | < 4.19 | < 4.19 | < 4.19 | < 4.19 | < 4.19 | –
4 | Cc1ccc(NCc2cn(-c3ccccc3)nc2-c2ccccc2)cc1 | > 100 µM | 4.28 | >1.9 | > 100 µM | 4.19 | > 100 µM | 4.55 | >3.6 | > 100 µM | < 4.00 | < 4.00 | < 4.00 | < 4.00 | < 4.00 | < 4.00 | < 4.00 | >1.5
5 | Cc1ccc(NCc2cn(-c3ccccc3)nc2-c2ccc(C(F)(F)F)cc2)cc1 | > 100 µM | 4.27 | >1.8 | 88 µM | < 4.06 | 82 µM | 4.60 | 3.3 | > 100 µM | < 4.00 | < 4.06 | < 4.09 | < 4.09 | < 4.09 | < 4.09 | < 4.09 | –
